One block for each compound: values may come before it.
Assays:
[1] = Beverage swallowing test: duration of cooling in throat and chest and adverse taste ranking; format: in vivo, human; conditions: for Onset of cooling action in the chest (in words): in vivo; for Duration of effects (in words): compared with the shorter DIPA analogs; for Duration Cool: 20 mg in 50 mL (0.4 mg/mL); for Min. (cooling): 50 mL beverage
Source text: DIPA compounds dissolved in water have an unpleasant, bitter, and metallic taste. The goal of the experiments was to find an adjunct that would make the DIPA beverage palatable. The anatomic sites for bitterness (adverse taste) are primarily on the dorsal surface of the posterior one-third of the tongue. The coolness and refreshment areas are on the hypopharynx and the upper one-third of the esophagus (FIG. 1). These are two different anatomic sites. Sensations of coolness from the oral cavity and oropharynx are not the primary targets. The esophagus is in the center of the thorax. When its lumen feels “cool,” this is like turning on the central air conditioner for the body. The goal of the beverage is to turn on this central air conditioning for at least 30 min and preferably longer without adverse tastes in the oral cavity. That is, the goal is to produce cool in the center of the chest but without bitter taste. A standard procedure was set. The cooling agent at various concentrations was made up to 50 mL with a liquid in a plastic cup (Flak Tek, Inc. South Carolina), beaker, whiskey glass, or bottle. For example, the final concentration of the coolant in the test solution may range from 0.1 to 0.5 mg/mL. The temperature of the liquid was measured and then swallowed. For example, 50 mL could be swallowed in five gulps or sipped. The duration of cooling in the throat and chest was recorded at various intervals until the cooling disappeared. The ranking of adverse taste was on a scale of 0 (no adverse taste), 1 (mild taste), 2 (moderate taste), or 3 (adverse taste). The value was for at least three trials per beverage.
Examples of test procedures and results. The usual method was to prepare a 2-mL vial containing a DIPA dissolved in water. The contents of the vial were added to beverages such as beer, soda drinks, fruit juice, coffee, tea, or water. A taste-modulating adjunct such as a sweetener can be in the 2-mL vial or present in the beverage. The drink is gulped at about 5 mL per swallow. The time and temperatures are noted. The onset of coolness in the center of the upper chest usually occurs within 3 min. For active compounds, this effect was pleasant and, depending on dose, could last for 10 minutes, an hour, or more. Gulping the liquid was important. When held in the mouth, the drink is cool and may have taste, but cooling in the center of the chest is reduced. Thus, sipping is not the correct method of drinking. Using these methods, a bottle of beer (e.g., ˜330 mL containing 33 mg of DIPA-1-9), if drank in a leisurely setting for one hour, can provide comfortable body cooling for 3 hr. Similarly, a smaller bottle of carbonated soda water (e.g., 200 mL), containing 15 mg of DIPA-1-6 produced immediate cooling relief for 30 min for individuals, for example, taking a break from playing tennis in the heat. For pharmaceutical uses, a tinted bottle with 20 mg of DIPA-1-9 in 50 mL of water with Splenda's Monk Fruit dissolved in it would be palatable and relieve the discomforts of indigestion.

[2] = as above; format: in vivo, human; conditions: for Duration of Cooling: 0.4 mg/mL in Monk fruit sweetened water (1 pack Splenda Monk Fruit per 100 mL), 30 mL, throat; for Dose sufficient for a robust, immediate cooling response: in 15 mL
TRPM8 receptor = TRPM8 receptor (Homo sapiens, UniProt Q7Z2W7); test: TRPM8 receptor agonist activity; format: cell-based
[3] = Water solubility of 1-dialkylphosphorylalkanes; format: physicochemical
Source text: The DIPA compounds are colorless liquids with a density less than water. These structures differ from those described by Rowsell and Spring U.S. Pat. No. 4,070,496 because '496 structures have their “head” (phosphine oxide group) covered by larger, more lipophilic groups. […] The applicant synthesized these analogs (which are achiral, by contrast to the structures of '496, which are >95% chiral). […] This increased water-solubility is striking (Table 3). Additional details on the bioactivity and pharmacology of these DIPA can be found in the paper by Yang et al., [(2017). A novel TRPM8 agonist relieves dry eye discomfort. BMC Ophthalmology, 17(1). https://doi.org/10.1186/s12886-017-0495-2], incorporated herein by reference.

TRPV1 = target: T1, TRPV1 (Homo sapiens, UniProt Q8NER1); test: Activation of TRPV1-transfected cells; format: cell-based
T1 construct: expressed in transfected cells

[4] = DIPA cooling on the effects of a hotpot meal; format: in vivo, human; conditions: 0.5 mg/mL in water containing 1 packet of Splenda's Monk Fruit sweetener per 200 mL
Source text: DIPA Cooling on the effects of a “hotpot” meal. A hotpot meal has been prevalent in central China (Sichuan province) for over a thousand years and has become very popular in many parts of Asia today. It is a family affair with a boiling pot of broth in the middle of the table, and everyone cooks food in the broth. Exceptionally spicy chili pepper is in the soup, and even in summer, the air-conditioning is off, so everybody sweats. The general idea is to get so hot that one becomes desensitized to the hot weather. […] Another method for relief from the hotpot is to incorporate it into a beer at DIPA-1-9 0.1 mg/ml, and commercialize it as “HotPot Beer.”

TRPA1 = target: T2, TRPA1 (Homo sapiens, UniProt O75762); test: Activation of TRPA1-transfected cells; format: cell-based
T2 construct: expressed in transfected cells
T2 sequence (O75762 whole entry): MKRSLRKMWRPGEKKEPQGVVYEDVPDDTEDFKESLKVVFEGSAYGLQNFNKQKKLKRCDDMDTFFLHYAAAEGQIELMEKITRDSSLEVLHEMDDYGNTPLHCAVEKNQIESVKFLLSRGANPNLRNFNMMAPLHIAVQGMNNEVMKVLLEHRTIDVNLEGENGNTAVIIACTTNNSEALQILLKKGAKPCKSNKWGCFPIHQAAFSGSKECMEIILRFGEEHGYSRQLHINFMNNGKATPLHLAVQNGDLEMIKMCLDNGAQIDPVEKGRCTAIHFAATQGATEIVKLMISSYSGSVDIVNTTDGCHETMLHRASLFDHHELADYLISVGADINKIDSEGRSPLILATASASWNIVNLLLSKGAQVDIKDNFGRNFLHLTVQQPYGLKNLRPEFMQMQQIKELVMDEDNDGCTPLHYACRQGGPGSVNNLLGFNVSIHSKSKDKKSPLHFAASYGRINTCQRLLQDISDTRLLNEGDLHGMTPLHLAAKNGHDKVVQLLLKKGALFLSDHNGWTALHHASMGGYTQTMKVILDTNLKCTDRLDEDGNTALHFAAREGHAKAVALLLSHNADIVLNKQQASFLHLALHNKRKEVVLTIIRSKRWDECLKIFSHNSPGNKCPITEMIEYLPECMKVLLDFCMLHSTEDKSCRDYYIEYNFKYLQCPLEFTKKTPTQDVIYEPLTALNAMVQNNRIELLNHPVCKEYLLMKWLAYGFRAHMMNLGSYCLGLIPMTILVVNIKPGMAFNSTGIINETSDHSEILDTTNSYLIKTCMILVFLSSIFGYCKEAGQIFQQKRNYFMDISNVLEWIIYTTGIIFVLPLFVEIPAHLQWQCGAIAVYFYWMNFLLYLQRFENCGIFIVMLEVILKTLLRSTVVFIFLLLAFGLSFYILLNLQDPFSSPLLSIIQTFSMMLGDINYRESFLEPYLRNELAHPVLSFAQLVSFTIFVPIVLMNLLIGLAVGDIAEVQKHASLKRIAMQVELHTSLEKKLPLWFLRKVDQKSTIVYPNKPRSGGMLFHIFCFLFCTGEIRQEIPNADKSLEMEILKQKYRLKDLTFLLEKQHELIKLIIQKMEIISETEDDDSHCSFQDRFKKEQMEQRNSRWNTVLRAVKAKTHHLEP

T1 sequence (Q8NER1 whole entry): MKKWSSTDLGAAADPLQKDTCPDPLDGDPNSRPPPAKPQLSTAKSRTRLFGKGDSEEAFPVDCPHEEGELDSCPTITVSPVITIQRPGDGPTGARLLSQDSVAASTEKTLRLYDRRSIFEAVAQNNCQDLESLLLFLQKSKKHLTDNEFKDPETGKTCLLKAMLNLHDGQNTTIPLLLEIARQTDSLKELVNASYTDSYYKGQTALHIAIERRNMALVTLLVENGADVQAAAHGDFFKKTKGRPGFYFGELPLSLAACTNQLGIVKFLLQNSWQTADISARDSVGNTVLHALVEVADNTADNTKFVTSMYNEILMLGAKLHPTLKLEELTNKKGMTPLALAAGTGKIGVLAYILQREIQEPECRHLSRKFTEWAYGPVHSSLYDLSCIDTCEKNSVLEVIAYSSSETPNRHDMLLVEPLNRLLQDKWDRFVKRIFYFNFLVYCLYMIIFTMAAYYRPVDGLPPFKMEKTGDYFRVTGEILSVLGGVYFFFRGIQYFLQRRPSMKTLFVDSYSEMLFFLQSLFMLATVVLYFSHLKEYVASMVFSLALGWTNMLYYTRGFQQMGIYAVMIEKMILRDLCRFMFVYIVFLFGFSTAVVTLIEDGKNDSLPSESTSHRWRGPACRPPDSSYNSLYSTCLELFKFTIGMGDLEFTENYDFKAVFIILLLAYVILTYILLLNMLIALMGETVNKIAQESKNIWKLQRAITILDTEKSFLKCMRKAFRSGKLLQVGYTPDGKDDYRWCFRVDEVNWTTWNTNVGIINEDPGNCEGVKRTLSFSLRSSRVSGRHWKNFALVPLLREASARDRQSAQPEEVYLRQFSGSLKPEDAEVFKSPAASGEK
Sequence of TRPM8 receptor (Q7Z2W7 whole entry): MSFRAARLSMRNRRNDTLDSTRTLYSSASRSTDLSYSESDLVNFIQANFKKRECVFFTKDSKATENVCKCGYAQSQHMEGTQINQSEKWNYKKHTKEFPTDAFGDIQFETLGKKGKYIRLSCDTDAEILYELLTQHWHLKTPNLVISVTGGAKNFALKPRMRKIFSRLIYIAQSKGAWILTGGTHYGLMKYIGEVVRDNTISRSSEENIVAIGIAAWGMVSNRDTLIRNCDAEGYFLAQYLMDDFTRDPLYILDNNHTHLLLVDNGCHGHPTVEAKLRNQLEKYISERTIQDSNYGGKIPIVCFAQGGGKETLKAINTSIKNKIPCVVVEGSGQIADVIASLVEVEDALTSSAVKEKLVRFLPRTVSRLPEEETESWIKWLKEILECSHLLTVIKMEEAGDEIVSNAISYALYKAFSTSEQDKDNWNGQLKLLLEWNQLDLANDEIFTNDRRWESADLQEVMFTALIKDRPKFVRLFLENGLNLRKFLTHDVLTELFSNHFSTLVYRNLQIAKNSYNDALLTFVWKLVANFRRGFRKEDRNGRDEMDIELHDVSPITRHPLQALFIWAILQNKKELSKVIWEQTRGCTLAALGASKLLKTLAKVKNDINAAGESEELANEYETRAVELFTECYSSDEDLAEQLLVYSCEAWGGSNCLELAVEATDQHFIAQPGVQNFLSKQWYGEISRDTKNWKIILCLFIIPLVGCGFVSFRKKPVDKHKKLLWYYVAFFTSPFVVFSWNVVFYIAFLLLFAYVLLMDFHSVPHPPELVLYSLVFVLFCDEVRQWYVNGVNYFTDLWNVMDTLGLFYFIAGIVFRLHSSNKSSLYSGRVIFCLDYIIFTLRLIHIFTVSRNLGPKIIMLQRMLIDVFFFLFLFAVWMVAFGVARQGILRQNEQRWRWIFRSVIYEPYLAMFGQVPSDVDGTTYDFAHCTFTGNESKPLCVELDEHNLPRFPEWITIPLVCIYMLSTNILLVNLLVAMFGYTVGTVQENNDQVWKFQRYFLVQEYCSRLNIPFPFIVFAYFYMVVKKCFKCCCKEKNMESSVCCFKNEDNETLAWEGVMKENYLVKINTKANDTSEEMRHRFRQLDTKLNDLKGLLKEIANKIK

Structure (SMILES): CCCCCP(=O)(C(C)C)C(C)C [DIPA-1-5, 1-Di(isopropyl)-phosphinoyl-pentane]
Onset of cooling action in the chest (in words) [1]: immediate | Duration of Cooling [2]: 12 min | Dose sufficient for a robust, immediate cooling response [2]: 10 mg

Structure (SMILES): CCCCCCCCP(=O)(C(C)C)C(C)C [DIPA-1-8, 1-Di(isopropyl)-phosphinoyl-octane]
Duration of effects (in words) [1]: more long-lasting | Effective dose ([1]; in a whiskey glass): 15 mg | Duration of Cooling [2]: 43 min

EC50 (TRPM8 receptor): inactive | Water solubility [3]: <3 mg/mL
Structure (SMILES): CCCCCCCCCCP(=O)(C(C)C)C(C)C [DIPA-1-10]
Duration of Cooling [2]: 0 min

Activation of TRPV1-transfected cells (TRPV1): does not activate | Activation of TRPA1-transfected cells (TRPA1): does not activate
Structure (SMILES): CCCCCCCCCP(=O)(C(C)C)C(C)C [DIPA-1-9, 1-Diisopropyl-phosphinoyl-nonane]
Onset of relief [4]: within several minutes | Relief after a hotpot meal (in words) [4]: relieves the pain in the oral cavity and throat | Duration ([1]; 0.4 mg/L, apple juice (Martinelli, Mott's), 21 °C): 34 min | Duration ([1]; 0.4 mg/L, grape juice (Welch Grape), 20 °C): 35 min | Duration ([1]; 0.4 mg/L, guarana juice soda (Guarana Antarctica), 10 °C): 40 min | Duration ([1]; 0.4 mg/L, orange juice (fresh-squeezed), 8 °C): 40 min | Duration ([1]; 0.4 mg/L, sweetened soda (Coca-Cola), 7 °C): 25 min | Duration ([1]; 0.4 mg/L, wine (Moscato d'Asti), 8 °C): 36 min | Duration ([1]; 0.4 mg/mL, hot cappuccino drink (3 Coracoes, Brazil), 70 °C): 30 min | Duration ([1]; 0.4 mg/mL, hot coffee + herbal sweetener (117 + Stevia extracts), 75 °C): 36 min | Duration ([1]; 0.4 mg/mL, hot coffee cream/sugar (117, Nescafe), 65 °C): 35 min | Duration ([1]; 0.4 mg/mL, hot coffee-no cream or sugar (117, Nescafe), 62 °C): 30 min | Duration ([1]; 0.4 mg/mL, hot water + monk fruit (Splenda monk fruit), 50 °C): 42 min | Duration ([1]; 0.4 mg/mL, hot water + monk fruit (Splenda monk fruit), 70 °C): 38 min | Duration ([1]; 0.4 mg/mL, iced cold cappuccino (Starbuck's frappaccino), 8 °C): 25 min | Duration ([1]; 0.4 mg/mL, red tea (Peach-Ceylon, no sweetener), 46 °C): 31 min | Duration ([1]; 0.4 mg/mL, sweetened tea (Ito En + 10% sucrose), 10 °C): 38 min | Duration ([1]; 0.4 mg/mL, sweetened tea (Ito En + Truvia or Monk's Fruit), 10 °C): 40 min | Duration ([1]; 0.4 mg/mL, unsweetened green tea (Ito En), 10 °C): 35 min | Duration Cool ([1]; carbonated water (Perrier, La Croix), 8 °C): 45 min | Duration Cool ([1]; water (Crystal Geyser), 10 °C): 48 min | Duration Cool ([1]; water (Crystal Geyser), 25 °C): 42 min | Duration Cool ([1]; water (Crystal Geyser), 74 °C): 45 min | Duration Cool ([1]; water + herbal sweetener (+Stevia leaf), 8 °C): 40 min | Duration Cool ([1]; water + herbal sweetener (+Stevia leaf), 22 °C): 35 min | Duration Cool ([1]; water + herbal sweetener (+Stevia leaf), 72 °C): 32 min | Duration Cool ([1]; water + synthetic sweetener (Neotame at 0.2 mg/mL), 10 °C): 40 min | Min. (cooling) ([1]; 0.2 mg/mL + Stevia, 20 °C): 12 min | Min. (cooling) ([1]; 0.4 mg/mL + Stevia, 20 °C): 35 min | Min. (cooling) ([1]; 0.4 mg/mL + Sucrose (10%), 20 °C): 42 min | Min. (cooling) ([1]; 0.8 mg/mL + Stevia, 20 °C): 55 min | Min. (cooling) ([1]; 0.8 mg/mL + Sucrose (10%), 20 °C): 39 min | Min. (cooling) ([1]; 0.8 mg/mL + Sucrose (15%), 20 °C): 45 min | Duration ([1]; Sake (Japanese rice wine), 10 °C): 32 min | Duration ([1]; beer (Heineken), 7 °C): 44 min | Duration of comfortable body cooling ([1]; bottle of beer ~330 mL containing 33 mg, drunk over one hour): 3 h | Duration of effects (in words) [1]: more long-lasting | Duration ([1]; ginger ale (Canada Dry), 11 °C): 25 min | Duration ([1]; ginger beer, juice (Q beer, Suja), 9 °C): 40 min | Effective dose ([1]; in a standard beer bottle): 33 mg | Duration ([1]; non-alcoholic beer (Heineken 00), 7 °C): 40 min | Duration ([1]; tonic water with quinine (Schweppes), 7 °C): 42 min | Duration ([1]; wheat ale (Blue Moon), 9 °C): 35 min | Duration of Cooling [2]: 48 min

Structure (SMILES): CCCCCP(=O)(C(C)CC)C(C)CC (centres unmarked) [di-sec-butyl- pentane]
Water solubility [3]: 22 mg/mL

Structure (SMILES): CCCCCCCP(=O)(C(C)C)C(C)C [DIPA-1-7, 1-Di(isopropyl)-phosphinoyl-heptane]
Onset of cooling action in the chest (in words) [1]: immediate | Duration of Cooling [2]: 36 min

Structure (SMILES): CCCCCCP(=O)(C(C)C)C(C)C [DIPA-1-6, 1-Di(isopropyl)-phosphinoyl-hexane]
Duration of immediate cooling relief ([1]; 200 mL carbonated soda water containing 15 mg): 30 min | Onset of cooling action in the chest (in words) [1]: immediate | Duration of Cooling [2]: 20 min | Dose sufficient for a robust, immediate cooling response [2]: 10 mg
